Experiment [1] addresses Lysine-specific demethylase 5B (Homo sapiens, UniProt Q9UGL1). Description: Inhibition of KDM5B (unknown origin) expressed in Escherichia coli using H3 (1 to 21 residues) K4Me3-GGK-Biotin KDM5B Cognate Ligand/10 uM alpha-ketoglutarate as substrate/cofactor preincubated for 5 mins followed by substrate addition measured after 20 mins by alphascreen assay.
Experiment [2] deals with Lysine-specific demethylase 5A (Homo sapiens, UniProt P29375). Nature of the experiment: Inhibition of KDM5A (1 to 797 residues) (unknown origin) expressed in insect sf21 cells using ARTK(Me3)QTARKSTGGKAPRK peptide/ 100 uM alpha-ketoglutarate as substrate/cofactor incubated for 45 mins by MALDI assay.
Sequence of Lysine-specific demethylase 5A (P29375 whole entry, the tested form may be a part): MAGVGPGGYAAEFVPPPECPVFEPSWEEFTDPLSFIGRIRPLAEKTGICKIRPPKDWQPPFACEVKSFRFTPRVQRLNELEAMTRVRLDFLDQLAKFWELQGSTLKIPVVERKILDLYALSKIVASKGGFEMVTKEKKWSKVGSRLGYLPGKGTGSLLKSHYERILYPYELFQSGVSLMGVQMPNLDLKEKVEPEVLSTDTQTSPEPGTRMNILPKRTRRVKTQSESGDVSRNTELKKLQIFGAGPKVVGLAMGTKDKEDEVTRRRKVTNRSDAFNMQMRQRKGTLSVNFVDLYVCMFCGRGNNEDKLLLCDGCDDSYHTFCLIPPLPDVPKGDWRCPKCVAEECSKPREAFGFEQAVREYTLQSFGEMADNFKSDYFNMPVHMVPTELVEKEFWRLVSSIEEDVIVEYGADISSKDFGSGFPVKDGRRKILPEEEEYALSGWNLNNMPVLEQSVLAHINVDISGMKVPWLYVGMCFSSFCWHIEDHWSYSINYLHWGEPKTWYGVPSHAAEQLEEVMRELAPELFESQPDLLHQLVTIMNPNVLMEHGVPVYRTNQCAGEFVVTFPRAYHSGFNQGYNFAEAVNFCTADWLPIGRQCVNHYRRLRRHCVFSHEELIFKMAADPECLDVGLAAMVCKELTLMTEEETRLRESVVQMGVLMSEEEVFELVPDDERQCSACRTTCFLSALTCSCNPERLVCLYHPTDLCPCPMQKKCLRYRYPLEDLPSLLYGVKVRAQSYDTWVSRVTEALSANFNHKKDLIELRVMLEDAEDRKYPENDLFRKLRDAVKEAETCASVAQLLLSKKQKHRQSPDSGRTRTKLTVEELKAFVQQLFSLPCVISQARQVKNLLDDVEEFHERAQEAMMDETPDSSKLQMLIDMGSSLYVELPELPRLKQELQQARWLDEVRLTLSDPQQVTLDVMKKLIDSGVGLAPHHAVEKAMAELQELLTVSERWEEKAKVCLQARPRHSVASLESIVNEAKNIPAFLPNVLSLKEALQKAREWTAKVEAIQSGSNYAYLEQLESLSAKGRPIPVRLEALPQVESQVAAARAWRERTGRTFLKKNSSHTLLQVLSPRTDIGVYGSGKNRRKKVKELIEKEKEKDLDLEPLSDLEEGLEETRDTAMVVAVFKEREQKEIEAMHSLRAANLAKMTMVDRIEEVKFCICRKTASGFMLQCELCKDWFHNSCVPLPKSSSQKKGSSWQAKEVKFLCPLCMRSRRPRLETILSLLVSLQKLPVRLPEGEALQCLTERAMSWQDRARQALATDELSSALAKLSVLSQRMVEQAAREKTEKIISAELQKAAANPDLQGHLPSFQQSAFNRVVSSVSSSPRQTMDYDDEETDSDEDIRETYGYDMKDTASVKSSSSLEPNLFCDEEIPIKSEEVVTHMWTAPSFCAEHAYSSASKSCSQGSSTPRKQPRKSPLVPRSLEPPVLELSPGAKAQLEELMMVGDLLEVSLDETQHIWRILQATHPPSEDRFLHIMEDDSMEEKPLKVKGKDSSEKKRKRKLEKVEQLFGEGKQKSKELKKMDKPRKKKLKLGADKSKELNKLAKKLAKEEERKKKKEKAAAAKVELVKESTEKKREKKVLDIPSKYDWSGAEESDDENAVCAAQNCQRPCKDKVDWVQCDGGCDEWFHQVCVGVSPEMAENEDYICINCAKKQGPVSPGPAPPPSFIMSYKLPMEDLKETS
Experiment [3] addresses T1, Lysine-specific demethylase 2A (Homo sapiens, UniProt Q9Y2K7).
T1 sequence (Q9Y2K7 whole entry): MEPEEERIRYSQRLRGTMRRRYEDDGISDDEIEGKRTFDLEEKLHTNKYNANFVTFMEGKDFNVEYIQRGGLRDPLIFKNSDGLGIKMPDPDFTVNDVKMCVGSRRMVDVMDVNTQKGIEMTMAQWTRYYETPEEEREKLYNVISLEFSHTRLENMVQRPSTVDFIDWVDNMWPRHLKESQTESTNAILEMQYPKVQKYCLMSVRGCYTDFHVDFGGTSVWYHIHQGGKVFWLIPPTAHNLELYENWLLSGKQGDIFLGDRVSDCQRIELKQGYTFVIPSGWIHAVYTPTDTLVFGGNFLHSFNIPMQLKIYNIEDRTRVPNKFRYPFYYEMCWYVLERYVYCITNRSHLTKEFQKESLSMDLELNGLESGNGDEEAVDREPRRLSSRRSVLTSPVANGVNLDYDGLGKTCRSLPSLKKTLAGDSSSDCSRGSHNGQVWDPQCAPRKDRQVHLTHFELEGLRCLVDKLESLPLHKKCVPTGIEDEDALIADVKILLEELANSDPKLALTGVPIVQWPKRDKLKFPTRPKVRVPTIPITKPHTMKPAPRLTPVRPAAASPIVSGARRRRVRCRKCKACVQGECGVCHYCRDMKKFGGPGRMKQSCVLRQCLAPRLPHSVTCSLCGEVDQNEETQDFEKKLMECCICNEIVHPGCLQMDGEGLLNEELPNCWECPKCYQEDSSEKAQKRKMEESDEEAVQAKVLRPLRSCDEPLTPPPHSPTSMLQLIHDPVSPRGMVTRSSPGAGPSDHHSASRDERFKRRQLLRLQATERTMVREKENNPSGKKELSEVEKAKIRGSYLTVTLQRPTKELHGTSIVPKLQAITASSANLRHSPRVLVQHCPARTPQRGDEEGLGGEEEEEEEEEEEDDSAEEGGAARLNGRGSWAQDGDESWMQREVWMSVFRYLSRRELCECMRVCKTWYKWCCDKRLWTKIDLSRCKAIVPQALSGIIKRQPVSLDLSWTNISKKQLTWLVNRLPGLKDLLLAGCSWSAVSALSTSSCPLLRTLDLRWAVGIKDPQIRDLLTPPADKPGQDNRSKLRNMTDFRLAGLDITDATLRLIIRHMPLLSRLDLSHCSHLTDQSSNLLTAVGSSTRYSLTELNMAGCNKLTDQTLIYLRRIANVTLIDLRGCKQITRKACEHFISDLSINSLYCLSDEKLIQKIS
Description: Inhibition of KDM2A (unknown origin) expressed in Escherichia coli using Biotin H3 (28 to 48 residues) Me2 KDM2A Cognate Ligande/10 uM alpha-ketoglutarate as substrate/cofactor preincubated for 15 mins followed by substrate addition measured after 30 mins by alphascreen assay. On the technique in general: In Alpha technology, singlet oxygen from a donor bead excites a nearby acceptor bead.

For experiment [4], the target named is Lysine-specific demethylase 6B (Homo sapiens, UniProt O15054). Description: Inhibition of KDM6B (unknown origin) expressed in Escherichia coli using H3 (21 to 44 residues) K27Me3-GGK-Biotin JMJD3 Cognate Ligand/10 uM alpha-ketoglutarate as substrate/cofactor preincubated for 5 mins followed by substrate addition measured after 5 mins by alphascreen assay.
Sequence of Lysine-specific demethylase 6B (O15054 whole entry, the tested form may be a part): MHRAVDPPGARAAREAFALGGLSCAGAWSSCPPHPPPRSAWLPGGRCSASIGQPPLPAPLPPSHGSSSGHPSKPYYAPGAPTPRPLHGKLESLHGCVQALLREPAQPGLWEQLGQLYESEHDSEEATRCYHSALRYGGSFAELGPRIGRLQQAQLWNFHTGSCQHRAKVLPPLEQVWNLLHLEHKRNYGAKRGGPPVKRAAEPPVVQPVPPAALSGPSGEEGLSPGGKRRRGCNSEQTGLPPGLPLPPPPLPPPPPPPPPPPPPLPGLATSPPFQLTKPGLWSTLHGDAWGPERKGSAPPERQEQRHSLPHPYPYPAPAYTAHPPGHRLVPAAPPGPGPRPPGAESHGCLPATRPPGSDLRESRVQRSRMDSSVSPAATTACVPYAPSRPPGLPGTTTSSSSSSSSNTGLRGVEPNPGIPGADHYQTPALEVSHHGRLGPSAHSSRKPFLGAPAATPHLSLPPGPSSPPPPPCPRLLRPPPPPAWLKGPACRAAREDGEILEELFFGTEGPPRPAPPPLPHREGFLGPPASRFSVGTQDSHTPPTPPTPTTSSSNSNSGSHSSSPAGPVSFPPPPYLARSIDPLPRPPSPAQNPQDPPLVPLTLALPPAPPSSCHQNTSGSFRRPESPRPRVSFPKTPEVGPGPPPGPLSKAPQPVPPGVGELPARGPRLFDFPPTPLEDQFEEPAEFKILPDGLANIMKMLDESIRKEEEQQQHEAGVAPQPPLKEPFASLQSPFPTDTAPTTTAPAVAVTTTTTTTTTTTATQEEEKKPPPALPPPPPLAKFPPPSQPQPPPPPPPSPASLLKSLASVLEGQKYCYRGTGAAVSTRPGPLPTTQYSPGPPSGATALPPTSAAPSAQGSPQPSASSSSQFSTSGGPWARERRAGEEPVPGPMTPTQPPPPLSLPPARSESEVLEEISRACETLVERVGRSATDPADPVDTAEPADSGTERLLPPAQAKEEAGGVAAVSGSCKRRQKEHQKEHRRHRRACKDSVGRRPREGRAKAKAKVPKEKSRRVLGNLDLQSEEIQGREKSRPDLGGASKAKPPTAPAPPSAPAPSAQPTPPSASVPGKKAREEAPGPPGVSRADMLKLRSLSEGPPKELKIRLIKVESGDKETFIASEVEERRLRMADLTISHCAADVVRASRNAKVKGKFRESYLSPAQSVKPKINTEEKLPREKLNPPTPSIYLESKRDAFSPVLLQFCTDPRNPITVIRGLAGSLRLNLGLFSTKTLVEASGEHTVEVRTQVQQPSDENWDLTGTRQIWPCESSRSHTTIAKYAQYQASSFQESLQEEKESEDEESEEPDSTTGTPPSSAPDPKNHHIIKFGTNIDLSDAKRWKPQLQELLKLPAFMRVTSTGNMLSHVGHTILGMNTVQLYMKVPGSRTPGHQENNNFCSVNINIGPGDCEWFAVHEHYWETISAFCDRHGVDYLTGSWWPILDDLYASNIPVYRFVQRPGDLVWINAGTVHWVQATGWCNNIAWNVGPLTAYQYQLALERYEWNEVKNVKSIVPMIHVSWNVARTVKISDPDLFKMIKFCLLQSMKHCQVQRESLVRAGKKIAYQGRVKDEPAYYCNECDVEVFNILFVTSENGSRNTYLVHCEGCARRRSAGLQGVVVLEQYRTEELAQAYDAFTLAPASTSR
The target in experiment [5] is T2, Lysine-specific demethylase 4D (Homo sapiens, UniProt Q6B0I6).
T2 sequence (Q6B0I6 whole entry): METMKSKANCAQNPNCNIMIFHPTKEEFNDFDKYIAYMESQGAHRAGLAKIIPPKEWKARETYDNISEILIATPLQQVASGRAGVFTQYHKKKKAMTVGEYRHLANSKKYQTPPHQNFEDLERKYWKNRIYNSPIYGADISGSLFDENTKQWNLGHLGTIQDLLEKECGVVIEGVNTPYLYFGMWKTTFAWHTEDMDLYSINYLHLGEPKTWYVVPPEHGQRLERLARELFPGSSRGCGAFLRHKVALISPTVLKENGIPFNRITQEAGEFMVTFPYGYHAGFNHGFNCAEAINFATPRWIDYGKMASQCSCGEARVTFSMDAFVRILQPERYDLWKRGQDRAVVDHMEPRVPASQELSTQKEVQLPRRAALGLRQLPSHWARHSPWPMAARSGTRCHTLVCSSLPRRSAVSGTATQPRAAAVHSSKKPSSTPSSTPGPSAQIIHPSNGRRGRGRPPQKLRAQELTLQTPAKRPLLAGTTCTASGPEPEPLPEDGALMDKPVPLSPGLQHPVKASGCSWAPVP
Description: Inhibition of KDM4D (unknown origin) expressed in Escherichia coli using H3 (1 to 21 residues) K9Me3-GGK-Biotin KDM4 Cognate Ligand/10 uM alpha-ketoglutarate as substrate/cofactor preincubated for 5 mins followed by substrate addition measured after 20 mins by alphascreen assay.

The record followed here is ChEMBL document CHEMBL3774347, “Docking and Linking of Fragments To Discover Jumonji Histone Demethylase Inhibitors” (J Med Chem, 2016).

Sequence of Lysine-specific demethylase 5B (Q9UGL1 whole entry, the tested form may be a part): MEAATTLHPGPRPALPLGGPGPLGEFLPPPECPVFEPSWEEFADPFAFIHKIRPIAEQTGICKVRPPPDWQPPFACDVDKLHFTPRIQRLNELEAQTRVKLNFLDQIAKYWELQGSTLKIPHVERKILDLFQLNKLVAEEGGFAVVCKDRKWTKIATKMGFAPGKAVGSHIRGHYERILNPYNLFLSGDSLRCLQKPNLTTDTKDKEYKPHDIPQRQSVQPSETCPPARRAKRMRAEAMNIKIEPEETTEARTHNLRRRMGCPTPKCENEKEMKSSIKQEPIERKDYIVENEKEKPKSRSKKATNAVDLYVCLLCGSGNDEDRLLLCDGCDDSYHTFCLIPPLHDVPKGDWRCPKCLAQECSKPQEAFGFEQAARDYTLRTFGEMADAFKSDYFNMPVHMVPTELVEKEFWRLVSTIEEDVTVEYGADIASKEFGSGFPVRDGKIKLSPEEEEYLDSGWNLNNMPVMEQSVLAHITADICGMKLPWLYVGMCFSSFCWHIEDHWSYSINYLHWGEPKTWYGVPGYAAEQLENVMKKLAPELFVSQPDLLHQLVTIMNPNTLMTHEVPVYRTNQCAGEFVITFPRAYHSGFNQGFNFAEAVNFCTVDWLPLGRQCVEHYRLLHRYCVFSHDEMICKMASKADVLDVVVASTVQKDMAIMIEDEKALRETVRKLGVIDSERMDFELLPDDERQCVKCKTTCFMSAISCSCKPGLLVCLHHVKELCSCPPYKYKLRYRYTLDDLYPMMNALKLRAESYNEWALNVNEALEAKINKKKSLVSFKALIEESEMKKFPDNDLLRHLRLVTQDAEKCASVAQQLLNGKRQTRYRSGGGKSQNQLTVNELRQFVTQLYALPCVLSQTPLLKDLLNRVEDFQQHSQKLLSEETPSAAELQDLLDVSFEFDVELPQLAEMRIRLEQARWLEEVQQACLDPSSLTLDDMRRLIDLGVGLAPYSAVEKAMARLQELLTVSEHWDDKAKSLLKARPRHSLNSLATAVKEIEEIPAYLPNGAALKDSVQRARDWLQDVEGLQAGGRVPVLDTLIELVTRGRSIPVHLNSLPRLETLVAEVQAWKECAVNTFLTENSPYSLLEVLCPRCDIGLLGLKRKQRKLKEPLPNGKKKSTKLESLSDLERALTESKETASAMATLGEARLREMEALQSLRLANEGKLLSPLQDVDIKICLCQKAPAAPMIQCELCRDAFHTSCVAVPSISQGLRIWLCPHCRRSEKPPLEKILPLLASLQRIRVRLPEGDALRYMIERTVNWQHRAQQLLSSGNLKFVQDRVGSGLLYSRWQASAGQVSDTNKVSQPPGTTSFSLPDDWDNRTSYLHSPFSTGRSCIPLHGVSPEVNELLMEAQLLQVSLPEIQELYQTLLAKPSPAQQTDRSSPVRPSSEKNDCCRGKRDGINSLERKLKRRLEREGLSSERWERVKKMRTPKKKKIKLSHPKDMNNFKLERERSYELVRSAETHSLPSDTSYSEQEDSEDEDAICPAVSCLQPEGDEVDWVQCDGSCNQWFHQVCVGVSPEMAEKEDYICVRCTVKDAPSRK

What is called IC50 is the concentration at which inhibition is half-maximal. Low readings indicate inhibition by little substance, high ones a need for much substance. Turning to `COc1cccc(CC(=O)Nc2ccc(O)c(-c3cc(C(=O)O)ccn3)c2)c1`, the IC50 was 22 µM in experiment [1]; 52 µM in experiment [2]; 89 µM in experiment [3]; 16 µM in experiment [4]; 11 µM in experiment [5].
The matching figures for `O=C(O)c1ccnc(-c2cc(NC(=O)c3ccc(O)cc3)ccc2O)c1`: 19 µM, 45 µM, 89 µM, 27 µM and 13 µM.
For `CC(=O)Nc1ccc(O)c(-c2cc(C(=O)O)ccn2)c1` the same measures were 72 µM, 240 µM, > 100 µM, > 100 µM and 14 µM.
Take `Cc1cc(C(=O)Nc2ccc(O)c(-c3cc(C(=O)O)ccn3)c2)no1`: the IC50 was 2.7 µM in experiment [1]; 23 µM in experiment [2]; 76 µM in experiment [3]; 31 µM in experiment [4]; 9.2 µM in experiment [5].
The matching figures for `COCC(=O)Nc1ccc(O)c(-c2cc(C(=O)O)ccn2)c1`: 12 µM, 180 µM, 91 µM, > 100 µM and 4.2 µM.
